In patent US12037324B2, “Biarylmethyl heterocycles” (Université de Montréal, priority 2016, dated 2024):

Key:
[1] = target: T1, AGTR1 (Homo sapiens, UniProt P30556); assay: DiscoveRx β-arrestin2 recruitment assay (enzyme complementation, Pathunter CHO-K1 AGTR1 β-arrestin cell line); type: cell-based; details: DiscoveRx β-arrestin2 recruitment; for DiscoveRx β-arrestin2 Ymax (%): maximal response
T1 construct: host or cells: Pathunter CHO-K1 AGTR1 β-arrestin cell line (CHO-K1)
T1 sequence (P30556 1-359): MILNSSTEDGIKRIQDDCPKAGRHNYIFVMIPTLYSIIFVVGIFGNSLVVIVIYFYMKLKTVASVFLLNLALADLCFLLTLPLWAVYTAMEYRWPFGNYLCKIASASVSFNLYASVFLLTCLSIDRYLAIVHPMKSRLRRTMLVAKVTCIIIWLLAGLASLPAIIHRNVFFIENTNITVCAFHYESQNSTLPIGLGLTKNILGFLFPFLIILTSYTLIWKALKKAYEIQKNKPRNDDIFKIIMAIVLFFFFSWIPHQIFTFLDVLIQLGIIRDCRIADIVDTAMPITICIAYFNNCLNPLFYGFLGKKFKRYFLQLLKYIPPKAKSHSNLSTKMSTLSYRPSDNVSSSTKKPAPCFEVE
In short: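 Chemiluminescent enzyme-complementation read-out of β-arrestin2 recruitment to AGTR1 in engineered CHO-K1 cells after 90 min compound exposure at 37° C. Values are 4-parameter logistic EC50s in agonist mode, IC50s in antagonist mode, with efficacy relative to the maximal All response.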

[2] = target: T2, hAT1R (Homo sapiens, UniProt P30556); assay: BRET Gq biosensor assay, agonist response, HEK293 cells; type: cell-based; details: section of the 42nd table directly before the BRET P63 section
T2 sequence (P30556 1-359): T1 sequence (P30556 1-359)
Protocol: BRET β-arrestin2 and Gq Activation Assays
In another aspect of the invention, association of the ATIR with signaling proteins is assessed using bioluminescence resonance energy transfer assays (Stephane Angers, Ali Salahpour et al. 2002). This technology measures the association between bioluminescent and fluorescent protein tags.
Several of the plasmid constructs used in BRET experiments were previously described. Briefly, the coding sequence of β-arrestin2 was fused to Renilla luciferase II to generate β-arrestin2-Rluc (Quoyer, Janz et al. 2013). The membrane targeting motif from K-Ras, CAAX motif (GKKKKKKSKTKCVIM), was fused to Renilla GFP to create rGFP-CAAX plasmid (Namkung Y et al., Nat Commun (2016) 7, 12178). The Renilla luciferase II was inserted in the Gaq protein to generate Gaq-Rluc (Breton, Sauvageau et al. 2010). The Gγ1 protein was tagged with GFP10 to obtain GFP-Gyl, using the same strategy described previously for GFP-Gy2 (Gales, Rebois et al. 2005). The Gaq binding domain of the p63RhoGEF protein (amino acids 295-502) was fused to Renilla luciferase II to create P63-Rluc. Finally, the hAT1R plasmid construct encoding the receptor was generated by optimizing the coding sequence of human angiotensin II receptor (GeneOptimizer from ThermoFisher), and adding an artificial cleavable signal peptide from bovine prolactin ([…]) in N-terminus of the receptor to increase cell surface expression.
Gq Biosensor Assay HEK293 cells were cultured in DMEM supplemented with Penicillin-Streptomycin and 10% fetal bovine serum. Two days before the BRET experiment, HEK293 cells were transfected with hAT1R expression plasmid (200 ng/well) as well as Gaq-Rluc (100 ng/well), Gβ1 (375 ng/well) and GFP-Gγ1 (625 ng/well), using linear polyethylenimine 25 kDa (PEI) at a PEI:DNA ratio of 3:1. Transfected cells were directly seeded in 96-well plates, at a density of 35 000 cells per well, and maintained in culture for the next 48 h.
BRET experiments were carried out subsequently using the following procedures: cells were washed once with Tyrode's buffer (137 mM NaCl, 1 mM CaCl2, 0.9 mM KCl, […], 3.6 mM NaH2PO4, 5.5 mM glucose, 12 mM NaHCO3, and 25 mM HEPES, pH 7.4) and 90 μl of Tyrode's buffer was added to each well. Cells were equilibrated in their new buffer at room temperature for at least 30 minutes. Following the equilibration period, the coelenterazine substrate was first added to the cells, 10 μl per well of a 10×solution (prolume purple coelenterazine at a final concentration of 2 μM), immediately followed by compound addition using the HP D300 digital dispenser from Tecan (10 singlicate concentrations). Cells were incubated for 5 min at room temperature and BRET readings were then collected using a Synergy Neo Multi-Mode reader from BioTek with BRET2 filters 410/515, to record agonist response. […] A second reading was collected 5 min after this second addition, using the Synergy Neo Multi-Mode reader from BioTek with BRET2 filters 410/515, to record antagonist response. The BRET signal was determined by calculating the ratio of the light emitted by GFP (515 nm) over the light emitted by the Rluc (410 nm). To analyze agonist response, BRET signal values were converted into percentage of activation using the non-stimulated control as 0% and AngII maximal response as 100%. Sigmoidal concentration-response curves were generated with those normalized values using a 4-parameter logistic equation (IDBS ActivityBase software), to determine EC50 of the different compounds. In the case of antagonist response analysis, BRET signal values were converted into percentage of inhibition using the fixed dose of AngII (corresponding to the EC50) as 0% and non-stimulated control as 100%. Sigmoidal concentration-response curves were generated with those normalized values using a 4-parameter logistic equation (IDBS ActivityBase software), to determine IC50 of the different compounds.

[3] = target: T1, AGTR1; assay: DiscoveRx IP1 accumulation assay (HTRF), agonist mode, Pathunter CHO-K1 AGTR1 β-arrestin cell line; type: cell-based; details: for EC50: read-out: IP-1 EC50
In short: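 Agonist mode in CHO-K1 AGTR1 β-arrestin cells plated 14-16 h before; compounds at varying concentrations for 90 min at 37° C, IP1 accumulation read by HTRF (D2-conjugate and anti-IP1 cryptate, 20 min room temperature). EC50 from 4-parameter logistic fit; activity given as percentage of maximal AII effect.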

[4] = target: T2, hAT1R; assay: BRET β-arrestin2 biosensor assay, higher receptor expression (hAT1R 5 ng/well), HEK293 cells; type: cell-based; details: for EC50: High AT1R Expression
[5] = target: T2, hAT1R; assay: cell-based
[6] = target: T2, hAT1R; assay: cell-based; details: agonist mode; for EC50: read-out: BRET P63 EC50
[7] = Low AT1R Expression, read-out: BRET β-Arrestin2 Low AT1R Expression EC50
[8] = section of the 42nd table ending at r951, example numbering restarts after the DiscoveRx section, read-out: β-arrestin2 EC50

| EC50 [2] [nM] | SMILES | EC50 [1] [nM] | DiscoveRx β-arrestin2 Ymax (%) [1] [%] | IP-1 Ymax (%) [3] [%] | EC50 [3] [nM] | BRET β-Arrestin2 High AT1R Expression Ymax (%) [4] [%] | EC50 [4] [nM] | BRET β-Arrestin2 Low AT1R Expression Ymax (%) ([5]; Low AT1R Expression) | EC50 [5, 7] [nM] | EC50 [6] [nM] | EC50 [5, 8] [nM] | BRET P63 Ymax [6] [%] |
| --- | --- | --- | --- | --- | --- | --- | --- | --- | --- | --- | --- | --- |
| > 100000 | CCCCc1nc(Cl)c(C(=O)O)n1Cc1ccc(-c2cc(-n3ccc4ccccc43)ccc2-c2noc(=O)[nH]2)cc1 [Example 408] | 23.3 | 32.5 |  |  |  |  |  |  |  |  |  |
| 16600 | CCCCc1nc(Cl)c(C(=O)O)n1Cc1ccc(-c2cc(N3CCC[C@H](C)C3)ccc2-c2noc(=O)[nH]2)cc1 [Example 407, (S)-2-butyl-4-chloro-1-((5′-(3-methylpiperidin-1-yl)-2′-(5-oxo-4,5-dihydro-1,2,4-oxadiazol-3-yl)-[1,1′-biphenyl]-4-yl)methyl)-1H-imidazole-5-carboxylic acid] | 173 | 24.6 |  |  |  |  |  |  |  |  |  |
| 92.5 | CCCCc1nc(Cl)c(C(=O)O)n1Cc1ccc(-c2cc(-c3cc(OC)ccn3)ccc2-c2nn[nH]n2)cc1 [Example 421] | 9.4 | 38.5 |  |  |  |  |  |  |  |  |  |
| 17 | CCCCc1nc(Cl)c(C(=O)OCc2oc(=O)oc2C)n1Cc1ccc(-c2cc(-c3ccccc3)ccc2-c2nn[nH]n2)cc1 [Example 411] | 30.9 | 56.4 |  |  |  |  |  |  |  |  |  |
| 787 | CCOc1nc2cccc(C(=O)O)c2n1Cc1ccc(-c2cc(N3CC(C)(C)c4ccccc43)ccc2C(=O)O)cc1 [Example 319, 1-((2′-carboxy-5′-(3,3-dimethylindolin-1-yl)-[1,1′-biphenyl]-4-yl)methyl)-2-ethoxy-1H-benzo[d]imidazole-7-carboxylic acid] | 71.1 | 49.0 |  |  |  |  |  |  |  |  |  |
| 209 | CCCCc1nc(Cl)c(C(=O)O)n1Cc1ccc(-c2cc(-c3cc(N(C)C)ccn3)ccc2-c2nn[nH]n2)cc1 [Example 422, 2-butyl-4-chloro-1-((5′-(4-(dimethylamino)pyridin-2-yl)-2′-(2H-tetrazol-5-yl)-[1,1′-biphenyl]-4-yl)methyl)-1H-imidazole-5-carboxylic acid] | 68.7 | 26.7 |  |  |  |  |  |  |  |  |  |
| 27.3 | CCOc1nc2cccc(C(=O)O)c2n1Cc1ccc(-c2cc(-c3ccc(OC)cn3)ccc2-c2noc(=O)[nH]2)cc1 [Example 308] | 29.1 | 51.8 |  |  |  |  |  |  |  |  |  |
|  | CCCCC1=NC2(CCOC2)C(=O)N1Cc1ccc(-c2cc(-c3ccccc3)ccc2-c2nnn[nH]2)cc1 (single isomer, unassigned) [Example 147, 3-((6′-(1H-tetrazol-5-yl)-[1,1′:3′,1″-terphenyl]-4-yl)methyl)-2-butyl-7-oxa-1,3-diazaspiro[4.4]non-1-en-4-one] | 107 | 23.0 | 3.6 | 178 | 66.6 | 126 | 26.1 | 109 | > 100000 |  |  |
|  | CCc1nc2c(C)cc(C)nc2n1Cc1ccc(-c2cc(-c3cc(C)cc(C)c3)ccc2C(=O)O)cc1 [Example 181, 4″-((2-ethyl-5,7-dimethyl-3H-imidazo[4,5-b]pyridin-3-yl)methyl)-3,5-dimethyl-[1,1′:3′,1″-terphenyl]-4′-carboxylic acid] | 48 | 88.8 | 6.1 | 78.4 | 94.1 | 4.8 |  |  | 47.5 | 15.7 | 16.1 |
|  | CCc1nc2c(C)cc(C)nc2n1Cc1ccc(-c2cc(Oc3cc(C)ccn3)ccc2-c2nn[nH]n2)cc1 [Example 250] | 23 | 43.9 | 28.9 | 50.5 | 79.8 | 3.8 |  |  | 9.3 | 11 | 14.1 |
|  | CCc1nc2c(C)cc(C)nc2n1Cc1ccc(-c2cc(-c3cn(CC4CC4)nn3)ccc2-c2nnn[nH]2)cc1 [Example 237] | 55.3 | 62.3 | 13.7 | 79.7 | 84.4 | 16.3 |  |  | 60.5 | 112 | 21.1 |
|  | CCc1nc2c(C)cc(C)nc2n1Cc1ccc(-c2cc(-c3ccc(CO)cc3)ccc2-c2nn[nH]n2)cc1 [Example 63] | 10.2 | 26.1 | 21.4 | 51.3 | 76.6 | 7.5 | 59.3 | 26.5 | 23.2 |  | 12.4 |
|  | CCc1nc2c(C)cc(C)nc2n1Cc1ccc(-c2cc(Oc3cc(Cl)ccn3)ccc2-c2nn[nH]n2)cc1 [Example 251] | 33.6 | 20.2 | 10.9 | 182 | 57.2 | 10.6 |  |  | 11.1 | 8.2 | 6.7 |
|  | CCc1nc2c(C)cc(C)nc2n1Cc1ccc(-c2cc(Oc3ncccc3Cl)ccc2-c2nn[nH]n2)cc1 [Example 255] | 123 | 26.3 | 7.8 | 471 | 80.2 | 24.3 |  |  | 22.5 | 87.8 | 6.0 |
|  | CCc1nc2c(C)cc(C)nc2n1Cc1ccc(-c2cc(Oc3cccnc3)ccc2-c2nnn[nH]2)cc1 [Example 257] | 9 | 34.9 | 10.7 | 28.3 | 87.3 | 10 |  |  | 23.7 | 29.1 | 10.8 |
